In brackets after ≈: the same amount, converted by molar mass. Activity calls are given as the source filed them. The rule behind the calls is not given here.
Columns and labels:
Klebsiella pneumoniae [1] = test: Antibacterial activity against Klebsiella pneumoniae KPN 1617 incubated for 18 hrs by broth microdilution method; assay type: functional
Cell membrane [2] = test: Disruption of cell membrane integrity in Acinetobacter baumannii ATCC 19606 assessed as cytoplasmic content leakage at 4 microg/ml incubated for 1 hrs in presence of polymyxin-E by TEM analysis; assay type: subcellular; details: dose 4.0 µg/ml
Klebsiella pneumoniae [3] = test: Antibacterial activity against Klebsiella pneumoniae SIPI-KPN-1712 incubated for 18 hrs by broth microdilution method; assay type: functional
Klebsiella pneumoniae [4] = test: Synergistic antibacterial activity against Klebsiella pneumoniae SIPI-KPN-1712 assessed as polymyxin-E MIC at 4 microg/ml incubated for 18 hrs by broth microdilution method; assay type: functional; details: dose 4 µg/ml
Staphylococcus aureus [5] = test: Antibacterial activity against methicillin-resistant Staphylococcus aureus ATCC 43300 assessed as inhibition of bacterial growth at 0.5 to 1 microg/ml measured between 8 to 24 hrs by time-kill assay; assay type: functional, organism-based; details: dose 0.5-1 µg/ml, time 8-24 hrs
Klebsiella pneumoniae [6] = test: Synergistic antibacterial activity against Klebsiella pneumoniae KPN 943 assessed as polymyxin-E MIC at 4 microg/ml incubated for 18 hrs by broth microdilution method; assay type: functional; details: dose 4 µg/ml
Enterococcus faecalis = test: Antibacterial activity against Enterococcus faecalis ATCC 51299 assessed as inhibition of bacterial growth incubated for 18 hrs by broth microdilution method; assay type: functional
Acinetobacter baumannii [7] = test: Synergistic antibacterial activity against Acinetobacter baumannii Ab 1613 assessed as fold change in polymyxin-E MIC incubated for 18 hrs by broth microdilution method relative to polymyxin-E alone; assay type: functional
Listeria monocytogenes = test: Antibacterial activity against Listeria monocytogenes assessed as inhibition of bacterial growth incubated for 18 hrs by broth microdilution method; assay type: functional
Acinetobacter baumannii [8] = test: Synergistic antibacterial activity against Acinetobacter baumannii ATCC 19606 assessed as fold change in polymyxin-E MIC incubated for 18 hrs by broth microdilution method relative to polymyxin-E alone; assay type: functional
Staphylococcus aureus [9] = test: Antibacterial activity against Staphylococcus aureus S1-1-1 assessed as inhibition of bacterial growth incubated for 18 hrs by broth microdilution method; assay type: functional
[10] = system: Lactiplantibacillus plantarum; test: Antibacterial activity against Lactobacillus plantarum assessed as inhibition of bacterial growth incubated for 18 hrs by broth microdilution method; assay type: functional
Staphylococcus aureus [11] = test: Antibacterial activity against Staphylococcus aureus S1-1-38 assessed as inhibition of bacterial growth incubated for 18 hrs by broth microdilution method; assay type: functional
Acinetobacter baumannii [12] = test: Synergistic antibacterial activity against Acinetobacter baumannii Ab 1613 assessed as fractional inhibitory concentration index at 4 microg/ml incubated for 18 to 20 hrs by chequerboard assay; assay type: functional; details: dose 4 µg/ml; time 18-20 hrs
Cell membrane [13] = test: Disruption of cell membrane integrity in Acinetobacter baumannii ATCC 19606 assessed as displacement of outer membrane at 4 microg/ml incubated for 1 hrs by TEM analysis; assay type: subcellular; details: dose 4.0 µg/ml
Acinetobacter baumannii [14] = test: Synergistic antimicrobial activity against Acinetobacter baumannii ATCC 19606 assessed as fractional inhibitory concentration index in presence of polymyxin E incubated for 18 to 20 hrs by chequerboard assay; assay type: functional; details: time 18-20 hrs
Acinetobacter baumannii [15] = test: Synergistic antibacterial activity against Acinetobacter baumannii ATCC 19606 infected in female Balb/c mouse model assessed as survival rate of mouse at 64 mg/kg, iv administered every 12 hrs in presence of polymyxin-E and measured for 7 days; assay type: functional
[16] = system: Mycolicibacterium smegmatis; test: Antibacterial activity against Mycobacterium smegmatis ARC 700044 assessed as inhibition of bacterial growth incubated for 18 hrs by broth microdilution method; assay type: functional
[17] = system: Lacticaseibacillus rhamnosus; test: Antibacterial activity against Lactobacillus rhamnosus assessed as inhibition of bacterial growth incubated for 18 hrs by broth microdilution method; assay type: functional
[18] = system: Mycolicibacterium smegmatis; test: Antibacterial activity against Mycobacterium smegmatis ATCC 704 assessed as inhibition of bacterial growth incubated for 18 hrs by broth microdilution method; assay type: functional
Staphylococcus aureus [19] = test: Antibacterial activity against Staphylococcus aureus S1-1-33 assessed as inhibition of bacterial growth incubated for 18 hrs by broth microdilution method; assay type: functional
Pseudomonas aeruginosa [20] = test: Antibacterial activity against Pseudomonas aeruginosa PAE 1051 incubated for 18 hrs by broth microdilution method; assay type: functional
Pseudomonas aeruginosa [21] = test: Synergistic antibacterial activity against Pseudomonas aeruginosa PAE 3887 assessed as fold change in polymyxin-E MIC incubated for 18 hrs by broth microdilution method relative to polymyxin-E alone; assay type: functional
Acinetobacter baumannii [22] = test: Antibacterial activity against Acinetobacter baumannii ATCC 19606 assessed as inhibition of bacterial growth at 4 microg/ml incubated for overnight in presence of 0.25 microg/ml polymyxin-E by time-kill assay; assay type: functional, organism-based; details: dose 4.0 µg/ml
Bacillus subtilis [23] = test: Antibacterial activity against Bacillus subtilis CMCC(B) 63501 assessed as inhibition of bacterial growth incubated for 18 hrs by broth microdilution method; assay type: functional
Bacillus subtilis [24] = test: Antibacterial activity against Bacillus subtilis 168 assessed as inhibition of bacterial growth incubated for 18 hrs by broth microdilution method; assay type: functional
Klebsiella pneumoniae [25] = test: Synergistic antibacterial activity against Klebsiella pneumoniae KPN 1617 assessed as fractional inhibitory concentration index at 4 microg/ml incubated for 18 to 20 hrs by chequerboard assay; assay type: functional; details: dose 4 µg/ml; time 18-20 hrs
Klebsiella pneumoniae [26] = test: Synergistic antibacterial activity against Klebsiella pneumoniae SIPI-KPN-1712 assessed as fractional inhibitory concentration index at 4 microg/ml incubated for 18 to 20 hrs by chequerboard assay; assay type: functional; details: dose 4 µg/ml; time 18-20 hrs
Pseudomonas aeruginosa [27] = test: Synergistic antibacterial activity against Pseudomonas aeruginosa PAE 1051 assessed as polymyxin-E MIC at 4 microg/ml incubated for 18 hrs by broth microdilution method; assay type: functional; details: dose 4 µg/ml
Pseudomonas aeruginosa [28] = test: Antibacterial activity against Pseudomonas aeruginosa ATCC 13883 incubated for 18 hrs by broth microdilution method; assay type: functional
Pseudomonas aeruginosa [29] = test: Synergistic antibacterial activity against Pseudomonas aeruginosa PAE 1051 assessed as fold change in polymyxin-E MIC incubated for 18 hrs by broth microdilution method relative to polymyxin-E alone; assay type: functional
Staphylococcus aureus [30] = test: Antibacterial activity against methicillin-resistant Staphylococcus aureus ATCC 43300 assessed as inhibition of bacterial growth at 0.5 to 1 microg/ml incubated for 0 to 8 hrs by time-kill assay; assay type: functional, organism-based; details: dose 0.5-1 µg/ml, time 0-8 hrs
Acinetobacter baumannii [31] = test: Synergistic antibacterial activity against Acinetobacter baumannii ATCC 19606 assessed as fractional inhibitory concentration index at 4 microg/ml incubated for 18 to 20 hrs by chequerboard assay; assay type: functional; details: dose 4 µg/ml; time 18-20 hrs
Acinetobacter baumannii [32] = test: Synergistic antibacterial activity against Acinetobacter baumannii Ab 1611 assessed as fold change in polymyxin-E MIC incubated for 18 hrs by broth microdilution method relative to polymyxin-E alone; assay type: functional
Staphylococcus aureus [33] = test: Antibacterial activity against Staphylococcus aureus NCTC 8325 assessed as inhibition of bacterial growth incubated for 18 hrs by broth microdilution method; assay type: functional
Staphylococcus aureus [34] = test: Antimicrobial activity against methicillin/ofloxacin-resistant Staphylococcus aureus ATCC 43300 assessed as minimum inhibitory concentration incubated for 18 hrs by broth microdilution method; assay type: functional
Klebsiella pneumoniae [35] = test: Antibacterial activity against Klebsiella pneumoniae KPN 943 incubated for 18 hrs by broth microdilution method; assay type: functional
Staphylococcus aureus [36] = test: Antibacterial activity against Staphylococcus aureus S1-1-7 assessed as inhibition of bacterial growth incubated for 18 hrs by broth microdilution method; assay type: functional
Bacillus subtilis [37] = test: Antibacterial activity against Bacillus subtilis ATCC 6633 assessed as inhibition of bacterial growth incubated for 18 hrs by broth microdilution method; assay type: functional

## C/C(=N\Nc1ccccn1)c1csc(Nc2cc(F)cc(C(F)(F)F)c2)n1
Klebsiella pneumoniae [1]
  MIC: > 128 µg/mL
Cell membrane [2]
  Activity: Active
Klebsiella pneumoniae [3]
  MIC: > 128 µg/mL
Klebsiella pneumoniae [4]
  MIC: 2 µg/mL
Staphylococcus aureus [5]
  Activity: inactive
Klebsiella pneumoniae [6]
  MIC: 0.125 µg/mL
Enterococcus faecalis
  MIC: 2 µg/mL (≈ 5.06 µM)
Acinetobacter baumannii [7]
  fold change (FC): 4
Listeria monocytogenes
  MIC: 4 µg/mL (≈ 10.1 µM)
Acinetobacter baumannii [8]
  fold change (FC): 16
Staphylococcus aureus [9]
  MIC: 1 µg/mL (≈ 2.53 µM)
[10]
  MIC: 1 µg/mL (≈ 2.53 µM)
Staphylococcus aureus [11]
  MIC: 0.5 µg/mL (≈ 1.26 µM)
Acinetobacter baumannii [12]
  fractional inhibitory concentration index (FICI): 0.281
Cell membrane [13]
  Activity: Active
Acinetobacter baumannii [14]
  fractional inhibitory concentration index (FICI): 0.066
Acinetobacter baumannii [15]
  survival at 64 mg/kg: 100%
[16]
  MIC: 2 µg/mL (≈ 5.06 µM)
[17]
  MIC: 0.5 µg/mL (≈ 1.26 µM)
[18]
  MIC: 1 µg/mL (≈ 2.53 µM)
Staphylococcus aureus [19]
  MIC: 2 µg/mL (≈ 5.06 µM)
Pseudomonas aeruginosa [20]
  MIC: > 128 µg/mL
Pseudomonas aeruginosa [21]
  fold change (FC): 16
Acinetobacter baumannii [22]
  Activity: Active
Bacillus subtilis [23]
  MIC: 0.5 µg/mL (≈ 1.26 µM)
Bacillus subtilis [24]
  MIC: 1 µg/mL (≈ 2.53 µM)
Klebsiella pneumoniae [25]
  fractional inhibitory concentration index (FICI): 0.094
Klebsiella pneumoniae [26]
  fractional inhibitory concentration index (FICI): 0.094
Pseudomonas aeruginosa [27]
  MIC: 0.25 µg/mL
Pseudomonas aeruginosa [28]
  MIC: > 128 µg/mL
Pseudomonas aeruginosa [29]
  fold change (FC): 4
Staphylococcus aureus [30]
  Activity: Active
Acinetobacter baumannii [31]
  fractional inhibitory concentration index (FICI): 0.094
Acinetobacter baumannii [32]
  fold change (FC): 16
Staphylococcus aureus [33]
  MIC: 0.5 µg/mL (≈ 1.26 µM)
Staphylococcus aureus [34]
  MIC: 1 µg/mL (≈ 2.53 µM)
Klebsiella pneumoniae [35]
  MIC: > 128 µg/mL
Staphylococcus aureus [36]
  MIC: 2 µg/mL (≈ 5.06 µM)
Bacillus subtilis [37]
  MIC: 2 µg/mL (≈ 5.06 µM)
